Experimental findings from the METLIN SMRT retention time set (Domingo-Almenara et al. 2019) are described below.

The data set in a line: gradient 5% acetonitrile 3 min, to 50% in 2 min, to 85% in 15 min, held 3 min, 100 µL/min. As to conditions: column: Zorbax Extend-C18 2.1 x 50 mm; eluents: water / acetonitrile, 0.1% formic acid. An outline of the steps: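 Retention times come from adduct peaks that were picked computationally and then checked by hand. The standards, pure and pooled in mixtures of ~100 molecules, were run on a Zorbax Extend-C18 column (2.1 × 50 mm, 1.8 μm) at 100 μL/min with water and acetonitrile, each with 0.1% formic acid. Detection was by quadrupole time-of-flight mass spectrometry in positive and negative ionization mode, with a dead volume of 40 μL and a dwell volume of 900 μL.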
In turn, `CC1(C)NC(=O)N(CCC(=O)N2CCC(c3nc(C4CCOCC4)no3)C2)C1=O` (configuration not stated) yielded an RP-LC retention time of 604 s.

For the compound `Cc1nc(-c2ccccc2)nc2c1CCC(=O)N2C(C)C`, the RP-LC retention time came out at 1060 s.

With `O=C(NC(Cc1ccccc1)c1nnc(N2CCCCCC2)o1)C1CC1` (configuration not stated), the RP-LC retention time was 788 s.

In the case of `Cc1noc2nc(CCC(=O)NC(C)c3ccccc3)nc(N3CCC(C)CC3)c12` (configuration not stated), the RP-LC retention time came out at 941 s.

The compound `CCc1ccc(C2CC(=O)Nc3c(S(=O)(=O)c4ccccc4)csc32)cc1` (configuration not stated) returned an RP-LC retention time of 1060 s.

As to `COc1ccc(S(=O)(=O)CCC(=O)Nc2ccc(Cl)c3ncsc23)cc1`, the RP-LC retention time came out at 707 s.

In turn, `CC(=O)c1ccc(NC(=O)Cn2c(=O)n(-c3ccc(F)cc3)c(=O)c3c2cc(C)n3C)cc1` showed an RP-LC retention time of 763 s.

In turn, `CC(NC(=O)CCCn1c(=O)c2cccn2c2ccc(Br)cc21)C(=O)N1CCCCC1` (configuration not stated) displayed an RP-LC retention time of 832 s.

The compound `Cc1ccc(NC(=O)Nc2ccc3nnc(C)n3c2)cc1C` came in with an RP-LC retention time of 719 s.

In turn, `Cc1noc(C2CCCCN2Cc2cc(=O)n3ccccc3n2)n1` (configuration not stated) showed an RP-LC retention time of 608 s.

`CCN1c2ccccc2C(=O)NC12CCN(C(=O)Nc1ccccc1OC)CC2` had an RP-LC retention time of 781 s.

For `Cc1ccc(C(=O)CC2(O)C(=O)Nc3ccccc32)cc1C` (configuration not stated), the RP-LC retention time is 751 s.

`COCCN(Cc1cccs1)C(=O)CN1C[C@H]2C[C@H](C1)[C@H]1CCCC(=O)N1C2` came in with an RP-LC retention time of 556 s.

`COCCN1CCC(N2CCCN(C(=O)Cc3c[nH]c4ccccc34)CC2)C1=O` (configuration not stated) returned an RP-LC retention time of 576 s.

`CC(NS(=O)(=O)c1ccc2c(c1)CCN2C(=O)N1CCCC1)C(=O)N1CCCCC1` (configuration not stated) registered an RP-LC retention time of 720 s.

On to `O=C(Nc1ccc(F)c(Cl)c1)N1CCC(N2CCN(Cc3ccccc3)C2=O)CC1`, for which the RP-LC retention time is 899 s.

The compound `CCc1ccc(-c2noc(CN3C(=O)COc4ccc(C)cc43)n2)cc1` displayed an RP-LC retention time of 1160 s.

Turning to `Cc1nc(-c2ccccc2)sc1C(=O)NCCNC(=O)c1ccc(NC(=O)C2CC2)cc1`, the RP-LC retention time was found to be 705 s.

`CN1c2cc(C(=O)NCc3ccc(F)c(Cl)c3)ccc2C(=O)N2CCCCC21` (configuration not stated): the RP-LC retention time stood at 860 s.

The compound `COc1cccc(CN2CCC3(CC2)CC(O)CCO3)c1OC` (configuration not stated) displayed an RP-LC retention time of 582 s.

In turn, `O=C(CC1CCN(C(=O)Nc2ccc(F)cc2)CC1)N1CCCCC1` showed an RP-LC retention time of 740 s.

Turning to `Cc1cc(C)nc(Nc2nc(C(=O)NCCOc3ccc(F)cc3)cs2)n1`, the RP-LC retention time is 842 s.

As to `Cc1cc(C)c(S(=O)(=O)N2CCC(n3cnc4c(C)cccc4c3=O)CC2)c(C)c1`, the RP-LC retention time was found to be 1120 s.

Consider `Cc1cc(C(=O)NC(C)C2CC3CCC2C3)c2c(C)noc2n1` (configuration not stated), for which the RP-LC retention time turned out to be 939 s.

Regarding `CCN(CCN(C)C)c1nc(-c2ccc(OC)cc2)nc2ccccc12`, the RP-LC retention time turned out to be 562 s.

As for `CC1CCN(C(=O)Cn2c(=O)n(-c3ccc(F)cc3)c3ncccc32)CC1`, the RP-LC retention time came out at 834 s.

`Cn1cc(S(=O)(=O)NCc2ccc(F)cc2Cl)c2cccnc21` displayed an RP-LC retention time of 821 s.

Take `CCCNC(=O)Nc1ccc(C)cc1C`: the RP-LC retention time was 827 s.

The compound `Cc1[nH]nc(-c2c(C)sc(C)c2S(=O)(=O)Nc2ccc(Cl)cc2)c1C` gave an RP-LC retention time of 1060 s.

In turn, `CN(CC1CCOC1)C(=O)Nc1ccccc1C(F)(F)F` (configuration not stated) came in with an RP-LC retention time of 713 s.

In the case of `O=C(Cc1cc(-c2ccc(Cl)cc2)on1)NCCC1=CCCCC1`, the RP-LC retention time amounted to 584 s.

For the compound `COc1ccc2c(c1)C1(CCN(C(=O)c3cccc(C)c3)C1)C(=O)N2C` (configuration not stated), the RP-LC retention time came out at 823 s.

`Cc1ccc(-c2nnc(-c3ccccc3)o2)cc1S(=O)(=O)N1CCCCCC1` returned an RP-LC retention time of 1200 s.

On to `COC(=O)CNC(=O)N1CCCC1c1ccccc1C` (configuration not stated), for which the RP-LC retention time is 737 s.

Compound `CCc1nn2c(CNS(=O)(=O)c3ccc(F)c(F)c3)c(-c3ccccc3)nc2s1` yielded an RP-LC retention time of 982 s.

Compound `COCC(C)(O)CNC(=O)Cc1cccc(C)c1` (configuration not stated) registered an RP-LC retention time of 621 s.

`Cc1oc2ncnc(N3CCCC(C(=O)Nc4cccc(Cl)c4)C3)c2c1C` (configuration not stated): the RP-LC retention time worked out at 1050 s.

With `CCCN(CCC)C(=O)C1CCCN(c2ncnc3c2nc2n3CCCCC2)C1` (configuration not stated), the RP-LC retention time is 836 s.

For `CCn1cc(-c2nc(C(=O)Nc3ccccc3F)cs2)c2cccnc21`, the RP-LC retention time came to 1130 s.

Compound `CCCCN(CC(=O)N1CCNCC1)C(=O)c1ccc(Br)cc1` came in with an RP-LC retention time of 589 s.

In turn, `CCc1ccc(NC(=O)Nc2cccn3nc(C)nc23)cc1` returned an RP-LC retention time of 869 s.

In the case of `CCCN1CCn2cc(S(=O)(=O)Nc3ccccc3OC)cc2C1=O`, the RP-LC retention time worked out at 733 s.

The compound `CC(C)c1nnc(-c2ccc(S(=O)(=O)N3CCOCC3)o2)o1` displayed an RP-LC retention time of 754 s.

`Nc1nc(-c2ccccc2)nn1C(=O)c1ccc(F)cc1` gave an RP-LC retention time of 974 s.

`Cc1cc(C)nc(Nc2nc(C)c3cc4c(cc3n2)OCO4)n1` came in with an RP-LC retention time of 552 s.

As for `CCOC(=O)CC(=O)CSc1ncnc2c1cnn2-c1ccc(F)cc1`, the RP-LC retention time stood at 985 s.

In turn, `CCCCN1CCN(Cc2nc(-c3ccc(N4CCOCC4)nc3)no2)CC1` displayed an RP-LC retention time of 587 s.

`O=C(N[C@H]1C[C@@H]2C[C@H]1N(S(=O)(=O)c1ccc3c(c1)CCC3)C2)c1cccs1`: the RP-LC retention time was 943 s.

With `COc1ccc(OC)c(NC(=O)N2CCOc3ccc(Cl)cc32)c1`, the RP-LC retention time stood at 1010 s.

On to `CCc1ccc(CNC(=O)c2nc3cccnc3n(CC(C)C)c2=O)cc1`, for which the RP-LC retention time came out at 1100 s.

On to `Cc1cc(NC(=O)NCCc2c(C)nn(C)c2C)ccc1Br`, for which the RP-LC retention time is 705 s.

In turn, `CCc1nccn1Cc1nc(-c2ccc(F)cc2)no1` gave an RP-LC retention time of 625 s.

Regarding `CC(=O)Nc1ccc(-n2cnc(C(=O)N3CCN(c4cc(C)ccc4C)CC3)c2)nc1`, the RP-LC retention time turned out to be 790 s.

In turn, `Cc1ccc(-c2ccc(N3CCCC(C(=O)NCc4ccc5c(c4)OCO5)C3)nn2)cc1C` (configuration not stated) gave an RP-LC retention time of 763 s.

With `CC(C)c1ccc(S(=O)(=O)N2C[C@@H](F)C[C@H]2C(=O)N2CCc3ccccc3C2)cc1`, the RP-LC retention time was determined as 1060 s.

`Cc1ccc(C)c(NC(=O)c2cnc(-c3ccc(F)cc3)nc2-c2ccncc2)c1` gave an RP-LC retention time of 943 s.

On to `CCOc1ccc(C(=O)N2CCCC(c3nnc(-c4ccccc4)o3)C2)cc1` (configuration not stated), for which the RP-LC retention time was 892 s.

On to `Cc1ccn2cc(-c3ccc(NS(=O)(=O)c4ccc(C)c([N+](=O)[O-])c4)cc3)nc2n1`, for which the RP-LC retention time worked out at 685 s.

For the compound `Cc1cc(C)nc(SCc2ccc(C(=O)NCCc3c[nH]c4ccccc34)o2)n1`, the RP-LC retention time was found to be 894 s.

`COCCN1C(=O)CCc2cc(NC(=O)c3ccc(Br)o3)ccc21` came in with an RP-LC retention time of 721 s.

Take `CCN1c2ccccc2C(=O)NC12CCN(C(=O)c1cccc(C)c1)CC2`: the RP-LC retention time is 805 s.

In turn, `Cc1[nH]nc(-c2c(C)sc(C)c2S(=O)(=O)Nc2ccc(F)c(Cl)c2)c1C` came in with an RP-LC retention time of 1140 s.

`Nc1nc(N2CCN(C3CCCCC3)CC2)ncc1C(=O)Nc1ccccc1` registered an RP-LC retention time of 624 s.

As for `COCCn1cc(CCNC(=O)Nc2ccc(C)cc2)c2cccnc21`, the RP-LC retention time worked out at 718 s.

`CCOc1ccc(-n2c(=O)c3sccc3n(Cc3nc(-c4ccccc4OC)no3)c2=O)cc1`: the RP-LC retention time is 910 s.

Turning to `Cc1ccc(NC(=O)NC2CCN(c3ccccc3)C2=O)cc1C` (configuration not stated), the RP-LC retention time was 853 s.

`CCOc1ccc(NC(=O)c2oc3ccc(Br)cc3c2C)c2cccnc12` had an RP-LC retention time of 815 s.

`O=C(Nc1cccc(F)c1)c1c(O)c2cccnc2n(-c2ccc(F)cc2)c1=O` gave an RP-LC retention time of 1250 s.

With `COC(=O)C1=CN(c2cccc(C#N)c2)c2cc(F)ccc2S1(=O)=O`, the RP-LC retention time came to 763 s.

`CCOC(=O)CN1N=C(C(=O)N2CCC(C)CC2)S(=O)(=O)c2ccccc21` showed an RP-LC retention time of 888 s.

In turn, `COc1ccc(CN(CCN(C)C)c2ncccn2)cc1` gave an RP-LC retention time of 707 s.

Regarding `Cc1cc(N2CCN(S(=O)(=O)c3ccc(Cl)cc3)CC2)nc(NC2CCCCC2)n1`, the RP-LC retention time worked out at 884 s.

`COc1ccccc1N1CCN(C(=O)c2cn(-c3cc(N4CCCCC4)ncn3)cn2)CC1` came in with an RP-LC retention time of 856 s.

`COC(=O)c1c(NCCN2CCCc3ccccc32)c2cccc(Cl)c2[nH]c1=O` gave an RP-LC retention time of 955 s.

The compound `CCS(=O)(=O)Nc1ccc(-c2noc(C(C)NC(=O)c3ccccc3)n2)cc1` (configuration not stated) gave an RP-LC retention time of 777 s.

`CCOc1ccc(NC(=O)Cn2c(C)nc3cc4c(cc32)OCCO4)cc1` gave an RP-LC retention time of 658 s.

Turning to `CCOCC(=O)N1CCCCCNC(=O)[C@@H]2CCCC[C@@H]21`, the RP-LC retention time was 657 s.

In turn, `Cc1cccc(-c2noc(C3CCCN3C(=O)NCC3CCCO3)n2)c1` (configuration not stated) had an RP-LC retention time of 818 s.

`CCOC(=O)c1[nH]c(C)c(CCC(=O)N2CCC(C(=O)NCCc3ccccc3)CC2)c1C` yielded an RP-LC retention time of 795 s.

Compound `Cc1ccc(NC(=O)CN2C(=O)COc3ccc(C(=O)N(C)C)cc32)nc1` gave an RP-LC retention time of 612 s.

In the case of `CN(C)c1cccc(C(=O)Nc2cc(-c3cccnc3)no2)c1`, the RP-LC retention time came out at 728 s.

`Cc1cc(NC(=O)c2ncccn2)no1` came in with an RP-LC retention time of 577 s.
